This note sets out measurements from patent publication US20200247808A1, “Heterocyclic Tec-Family Kinase Inhibitors” (GB005, Inc., priority 2015, published 2020).

The target of one experiment is T1, human ErbB2 (Homo sapiens, UniProt P04626).
T1 construct: purchased Eurofins Pharma Discovery Services UK Limited (contract assay, KinaseProfiler)
In words: ErbB2 kinase inhibition, KinaseProfiler radiometric protein kinase assay (Eurofins). The class given is biochemical. The settings on record: 40 min room temperature. As to the method:
(§1) In vitro potency of selected compound was defined against human BTK, EGFR, and ErbB2 kinases using Kinase Profiler radiometric protein kinase assays performed at Eurofins Pharma Discovery Services UK Limited.
Each kinase is diluted in buffer and all compounds were prepared to 50x final assay concentration in 100% DMSO. This working stock of the compound was added to the assay well as the first component in the reaction, followed by the remaining components as detailed in the assay protocol listed above. The reaction was initiated by the addition of the MgATP mix. […] (specific activity approx. 500 cpm/pmol, concentration as required) and variable test article concentrations. […] The reaction was stopped by the addition of 3% phosphoric acid solution. 10 μL of the reaction is then spotted onto a P30 filtermat and washed three times for 5 minutes in 75 mM phosphoric acid and once in methanol prior to drying and scintillation counting. […] This abolishes kinase activity and establishes the base-line (0% kinase activity remaining). The potency of each compound was reported by estimating the EC50.

For experiment [1], the target named is T2, EGFR (Homo sapiens, UniProt P00533). Kind of experiment: EGFR kinase inhibition, KinaseProfiler radiometric protein kinase assay (Eurofins). The class given is biochemical. Further details: purchased Eurofins Pharma Discovery Services UK Limited (contract assay, KinaseProfiler). The settings on record: 40 min room temperature. As to the method:
as §1
Each kinase is diluted in buffer and all compounds were prepared to 50x final assay concentration in 100% DMSO. This working stock of the compound was added to the assay well as the first component in the reaction, followed by the remaining components as detailed in the assay protocol listed above. The reaction was initiated by the addition of the MgATP mix. […] (specific activity approx. 500 cpm/pmol, concentration as required) and variable test article concentrations. […] The reaction was stopped by the addition of 3% phosphoric acid solution. 10 μL of the reaction is then spotted onto a P30 filtermat and washed three times for 5 minutes in 75 mM phosphoric acid and once in methanol prior to drying and scintillation counting. In addition positive control wells contain all components of the reaction, except the compound of interest; however, DMSO (at a final concentration of 2%) were included in these wells to control for solvent effects as well as blank wells contain all components of the reaction, with a reference inhibitor replacing the compound of interest. This abolishes kinase activity and establishes the base-line (0% kinase activity remaining). […]

The target of experiment [2] is T2, EGFR. In words: Inhibition of cellular EGFR (EGF-stimulated EGFR autophosphorylation in MDA-468 cells). The class given is cell-based. Further details: MDA-468 human breast tumor cells which express functional EGFR; endogenous in cells; host or cells: MDA-468 human breast tumor cells. As to conditions: 1 h pretreatment, 10 ng/mL EGF 5 min, phospho-EGFR/EGFR ratio.
Experimental: Cells were plated at a densitity of 400 000 cells/well in 6×12-well plates in a final volume of 1 ml/well in DMEM high glucose+10% FBS +1% Pen/Strep and cultured at 37 C and 5% CO2 overnight. The following day the media was replaced with serum free media and the cells were cultured for a further 24 hours.
Cells were pretreated with compound for 1 hour and then stimulated with 10 ng/mL EGF for 5 minutes. Media was removed and cells were lysed in 100 uL/well of RIPA buffer+1% Protease Inhibitor cocktail+1% Phosphatase inhibitor cocktail. Protein concentrations were determined by
BCA assay. 25μ of cellular protein from each cell treatment was separated by SDS-PAGE. Proteins were transferred to nitrocellulose membranes and blocked with TBS-T+5% non-fat milk. EGFR and phospho-EGFR were detected following incubation overnight at 4° C. with Rabbit anti-phospho-EGFR (Tyr1068) (Cell signaling) diluted 1/1000 and Mouse anti-EGFR (1F4) (Cell signaling) diluted 1/1000 in TBS-T+5% nonfat dry milk and then incubation for 1 h at RT with IR Dye 800CW goat anti-rabbit diluted 1/15000 and with IR Dye 680RD goat anti-mouse diluted 1/15000 in TBS-T+5% nonfat dry milk+0.01% SDS. Antibody binding was quatified using a Li-cor Odyssey CLx. Phospho-EGFR/EGFR ratios were calculated for each test condition of control and test article and the EC50 of inhibiton of EGF-stimulated EGFR phosphorylation was calculated.

Structures are written as SMILES.

T2 sequence (P00533 25-1210): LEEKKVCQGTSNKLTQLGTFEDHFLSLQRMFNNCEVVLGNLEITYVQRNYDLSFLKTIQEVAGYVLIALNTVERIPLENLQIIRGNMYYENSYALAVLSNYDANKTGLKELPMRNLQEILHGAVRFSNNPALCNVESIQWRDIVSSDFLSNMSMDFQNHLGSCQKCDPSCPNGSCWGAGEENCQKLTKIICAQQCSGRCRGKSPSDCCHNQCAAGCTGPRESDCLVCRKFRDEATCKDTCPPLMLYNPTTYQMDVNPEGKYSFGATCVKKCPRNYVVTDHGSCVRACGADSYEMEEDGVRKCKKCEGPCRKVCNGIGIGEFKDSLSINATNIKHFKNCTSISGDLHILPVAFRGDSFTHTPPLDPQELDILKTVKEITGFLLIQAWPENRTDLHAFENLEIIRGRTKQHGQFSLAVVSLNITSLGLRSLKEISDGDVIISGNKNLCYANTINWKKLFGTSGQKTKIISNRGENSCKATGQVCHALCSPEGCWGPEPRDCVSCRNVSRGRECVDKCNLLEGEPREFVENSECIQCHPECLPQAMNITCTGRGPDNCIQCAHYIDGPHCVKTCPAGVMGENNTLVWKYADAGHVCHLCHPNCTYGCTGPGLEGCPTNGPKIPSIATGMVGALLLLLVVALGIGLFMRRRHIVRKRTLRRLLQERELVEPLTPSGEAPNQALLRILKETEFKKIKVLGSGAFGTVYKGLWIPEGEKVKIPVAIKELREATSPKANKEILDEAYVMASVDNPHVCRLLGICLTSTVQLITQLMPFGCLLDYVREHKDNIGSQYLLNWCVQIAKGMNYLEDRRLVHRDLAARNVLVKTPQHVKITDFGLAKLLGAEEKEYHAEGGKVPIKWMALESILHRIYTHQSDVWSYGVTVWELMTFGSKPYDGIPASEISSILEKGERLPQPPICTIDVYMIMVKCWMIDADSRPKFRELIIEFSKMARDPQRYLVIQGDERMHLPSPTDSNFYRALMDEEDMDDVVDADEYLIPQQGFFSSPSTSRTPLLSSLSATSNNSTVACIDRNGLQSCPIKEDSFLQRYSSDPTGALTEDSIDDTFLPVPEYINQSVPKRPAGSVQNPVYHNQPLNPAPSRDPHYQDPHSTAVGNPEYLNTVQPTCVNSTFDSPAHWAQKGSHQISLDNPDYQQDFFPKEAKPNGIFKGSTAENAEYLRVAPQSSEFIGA
T1 sequence (P04626 23-1255): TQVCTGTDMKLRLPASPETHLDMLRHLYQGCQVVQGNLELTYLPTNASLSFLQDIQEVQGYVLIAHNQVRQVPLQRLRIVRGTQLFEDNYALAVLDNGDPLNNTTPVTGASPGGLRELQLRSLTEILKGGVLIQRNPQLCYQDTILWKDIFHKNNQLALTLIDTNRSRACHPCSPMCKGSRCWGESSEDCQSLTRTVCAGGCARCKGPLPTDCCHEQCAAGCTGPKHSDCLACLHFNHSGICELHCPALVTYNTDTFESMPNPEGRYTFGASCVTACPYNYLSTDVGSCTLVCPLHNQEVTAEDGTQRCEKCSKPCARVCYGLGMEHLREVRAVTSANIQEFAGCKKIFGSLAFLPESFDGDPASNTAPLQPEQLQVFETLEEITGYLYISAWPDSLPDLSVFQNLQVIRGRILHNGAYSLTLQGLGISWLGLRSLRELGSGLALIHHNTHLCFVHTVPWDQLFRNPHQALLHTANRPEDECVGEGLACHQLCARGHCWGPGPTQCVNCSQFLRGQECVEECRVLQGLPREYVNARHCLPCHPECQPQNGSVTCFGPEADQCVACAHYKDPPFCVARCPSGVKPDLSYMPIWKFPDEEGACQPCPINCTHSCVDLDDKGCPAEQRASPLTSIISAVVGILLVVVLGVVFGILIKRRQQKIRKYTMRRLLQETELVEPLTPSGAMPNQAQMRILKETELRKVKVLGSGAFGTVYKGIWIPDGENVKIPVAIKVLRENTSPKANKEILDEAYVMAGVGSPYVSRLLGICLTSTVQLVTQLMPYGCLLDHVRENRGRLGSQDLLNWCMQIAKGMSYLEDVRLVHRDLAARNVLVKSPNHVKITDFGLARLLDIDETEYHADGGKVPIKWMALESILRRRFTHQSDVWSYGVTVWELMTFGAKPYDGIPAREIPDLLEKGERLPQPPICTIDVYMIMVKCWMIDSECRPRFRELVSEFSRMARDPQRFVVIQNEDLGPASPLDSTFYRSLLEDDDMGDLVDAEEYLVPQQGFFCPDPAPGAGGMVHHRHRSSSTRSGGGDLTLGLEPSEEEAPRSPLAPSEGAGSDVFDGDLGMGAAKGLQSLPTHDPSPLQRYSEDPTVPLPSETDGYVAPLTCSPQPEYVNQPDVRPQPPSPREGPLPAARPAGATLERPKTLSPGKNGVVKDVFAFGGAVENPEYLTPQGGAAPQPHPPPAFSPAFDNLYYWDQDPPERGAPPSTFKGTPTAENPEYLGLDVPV

Turning to `CC#CC(=O)N[C@H]1C[C@@H](n2nc(-c3ccc(Oc4ccccc4)cc3)c3c(N)ncnc32)C1` [Compound 1], the IC50 on human ErbB2 and on EGFR [1] was above 1 µM in each case. Further, the EC50 at EGFR [2] came out at 5.96 µM.

In the case of `C=CC(=O)N[C@H]1C[C@@H](n2nc(-c3ccc(Oc4ccccc4)cc3)c3c(N)ncnc32)C1` [Compound 2], the IC50 is 0.097 µM against human ErbB2 and above 1 µM at EGFR [1]. Also, on EGFR [2], the EC50 turned out to be 0.376 µM.
